Converted amounts (≈) assume the structure as drawn.
Assays:
[1] = Flowability by compressibility index (Carr index); type: physicochemical; conditions: graded from compressibility index
Experimental: Compressibility is usually used to evaluate the flowability of powder and granular intermediates during the formulation process, and is known as compressibility index (c). Compressibility index test method is as follows: a certain amount of powder was added into a measuring cylinder and bulk volume was recorded. Then the powder was tapped to make it in the tightest state, and the tapped volume was recorded. The bulk density (ρ0), tapped density (ρf) were calculated, and compressibility index was calculated according to c=(ρf−ρ0)/pf. Compressibility index, also known as Carr index, is an important index for evaluating flowability.
The test method of Compressibility index is as follows: Compressibility index was calculated according to bulk density ρ0 and tapped density ρf of Form G and the crystalline form of the prior art with c=(ρf−ρ0)/ρf*100%.

[2] = Adhesiveness: material sticking to the punch on tableting; type: physicochemical; conditions: 30 mg, φ8 mm round tooling, 10 KN, 30 s
Experimental: 30 mg of Form G and the crystalline form of the prior art were weighed and added into the dies of φ8 mm round tooling, tableted at 10 KN and held for 30 s. The amount of material sticking to the punch was weighed. The compression was repeated twice and the cumulative amount, maximum amount and average amount of material sticking to the punch during the compression process were recorded.

[3] = Bulk and tapped density of powder; type: physicochemical; conditions: for Bulk density (ρ0): about 500 mg in 5-mL measuring cylinder; for Tapped density (ρf): tapped 1250 times
Experimental: The density of powder is mainly referred to the bulk density and tapped density. The bulk density refers to the density obtained by dividing the mass of the powder by the volume of the powder in the container. The tapped density is obtained by dividing the mass of the powder by the volume of the powder which is tapped to the tightest state.
About 500 mg of Form G and the crystalline form of the prior art are added into a 5-mL measuring cylinder to measure the bulk volumes. The bulk density was calculated according to the equation: bulk density ρ0=powder mass/bulk volume. The samples were tapped 1250 times to make them in the tightest state and the tapped volumes were recorded. The tapped density was calculated according to tapped density ρf=powder mass/tapped volume.

[4] = Kinetic solubility in biorelevant media and water (HPLC); conditions: thermodynamic from solid
Experimental: (§1) Simulated gastrointestinal fluids such as SGF (Simulated gastric fluids), FaSSIF (Fasted state simulated intestinal fluids) and FeSSIF (Fed state simulated intestinal fluids) are biorelevant media. […] 20 mg of Form G and 20 mg of crystalline form of the prior art were suspended into 1.5 mL of SGF, 1.5 mL of FaSSIF, 1.5 mL of FaSSIF and 1.5 mL of water to get saturated solutions. After equilibrated for 1 h, 4 h and 24 h, concentrations of the saturated solutions were measured by HPLC (mg/mL).

[5] = Hygroscopicity by dynamic vapor sorption (DVS); type: physicochemical
Experimental: Dynamic vapor sorption (DVS) was applied to test hygroscopicity of Form G and the crystalline form of the prior art with about 10 mg of samples. The weight gains at each relative humidity were recorded in a cycle of 0-95%-0 RH.

[6] = Stability of Form G on storage, crystalline form checked by XRPD; type: physicochemical; conditions: for Crystalline form after storage: XRPD
From the text: Crystalline forms were checked by XRPD.

[7] = physchem; conditions: thermodynamic from solid
Experimental: as §1

[8] = FaSSIF (fasted state simulated intestinal fluid), fassif
[9] = FeSSIF (fed state simulated intestinal fluid), fessif
[10] = SGF (simulated gastric fluid), simulated gastric fluid

## CCS(=O)(=O)N1CC(CC#N)(n2cc(-c3ncnc4[nH]ccc34)cn2)C1 [Crystalline form of the prior art, Baricitinib, reference compound]
[1]
  Flowability: Very poor (32-37)
[1]; listed as the prior art form
  Flowability: very poor
[2]
  Average amount of material sticking to the punch: 0.21 mg
  Cumulative amount of material sticking to the punch: 0.41 mg
  Maximum amount of material sticking to the punch: 0.43 mg
[3]
  Bulk density (ρ0): 0.133 g/mL
  Tapped density (ρf): 0.204 g/mL
[4]; [8]
  solubility kinetic at 1 h: 16 µg/mL (≈ 43.1 µM)
  solubility kinetic at 4 h: 18 µg/mL (≈ 48.5 µM)
  solubility kinetic at 24 h: 18 µg/mL (≈ 48.5 µM)
[4]; [9]
  solubility kinetic at 1 h: 35 µg/mL (≈ 94.2 µM)
  solubility kinetic at 4 h: 31 µg/mL (≈ 83.5 µM)
  solubility kinetic at 24 h: 33 µg/mL (≈ 88.8 µM)
[4]; [10]
  solubility kinetic at 1 h: 1900 µg/mL (≈ 5120 µM)
  solubility kinetic at 4 h: 1900 µg/mL (≈ 5120 µM)
  solubility kinetic at 24 h: 1900 µg/mL (≈ 5120 µM)
[4]; water
  solubility kinetic at 1 h: 8.9 µg/mL (≈ 24 µM)
  solubility kinetic at 4 h: 12 µg/mL (≈ 32.3 µM)
  solubility kinetic at 24 h: 13 µg/mL (≈ 35 µM)
[5]; Relative humidity 0
  Weight gain %: 0%
[5]; Relative humidity 10%
  Weight gain %: 0.07%
[5]; Relative humidity 20%
  Weight gain %: 0.11%
[5]; Relative humidity 30%
  Weight gain %: 0.15%
[5]; Relative humidity 40%
  Weight gain %: 0.19%
[5]; Relative humidity 50%
  Weight gain %: 0.24%
[5]; Relative humidity 60%
  Weight gain %: 0.30%
[5]; Relative humidity 70%
  Weight gain %: 0.36%
[5]; Relative humidity 80%
  Weight gain %: 0.44%
[5]; Relative humidity 90%
  Weight gain %: 0.59%
[5]; Relative humidity 95%
  Weight gain %: 0.78%

## CCS(=O)(=O)N1CC(CC#N)(n2cc(-c3ncnc4[nH]ccc34)cn2)C1 [Form G, Baricitinib]
[2]
  Average amount of material sticking to the punch: 0.06 mg
  Cumulative amount of material sticking to the punch: 0.12 mg
  Maximum amount of material sticking to the punch: 0.12 mg
[3]
  Bulk density (ρ0): 0.538 g/mL
  Tapped density (ρf): 0.614 g/mL
[6]; 25° C./60% RH (long term)
  Time for which the form is stable: at least 6 months
[6]; 25° C./60% RH, 6 months
  Crystalline form after storage: Form G
[6]; 40° C./75% RH (accelerated)
  Time for which the form is stable: at least 6 months
[6]; 40° C./75% RH, 6 months
  Crystalline form after storage: Form G
[6]; 60° C./75% RH
  Time for which the form is stable: at least 1 week
[6]; 60° C./75% RH, 1 week
  Crystalline form after storage: Form G
[6]; 80° C.
  Time for which the form is stable: at least 1 week
[6]; 80° C., 1 week
  Crystalline form after storage: Form G
[5]; Relative humidity 0
  Weight gain %: 0%
[5]; Relative humidity 10%
  Weight gain %: 0.01%
[5]; Relative humidity 20%
  Weight gain %: 0.03%
[5]; Relative humidity 30%
  Weight gain %: 0.04%
[5]; Relative humidity 40%
  Weight gain %: 0.06%
[5]; Relative humidity 50%
  Weight gain %: 0.07%
[5]; Relative humidity 60%
  Weight gain %: 0.10%
[5]; Relative humidity 70%
  Weight gain %: 0.15%
[5]; Relative humidity 80%
  Weight gain %: 0.21%
[5]; Relative humidity 90%
  Weight gain %: 0.27%
[5]; Relative humidity 95%
  Weight gain %: 0.34%
[5]; XRPD overlay, cycle 0-95%-0 RH
  Crystalline form change before and after DVS: no crystalline form change
[7]; fassif
  solubility kinetic at 1 h: 81 µg/mL (≈ 218 µM)
  solubility kinetic at 4 h: 100 µg/mL (≈ 269 µM)
  solubility kinetic at 24 h: 140 µg/mL (≈ 377 µM)
[7]; fessif
  solubility kinetic at 1 h: 130 µg/mL (≈ 350 µM)
  solubility kinetic at 4 h: 170 µg/mL (≈ 458 µM)
  solubility kinetic at 24 h: 220 µg/mL (≈ 592 µM)
[7]; simulated gastric fluid
  solubility kinetic at 1 h: 2600 µg/mL (≈ 7000 µM)
  solubility kinetic at 4 h: 2700 µg/mL (≈ 7270 µM)
  solubility kinetic at 24 h: 2800 µg/mL (≈ 7540 µM)
[7]; water
  solubility kinetic at 1 h: 52 µg/mL (≈ 140 µM)
  solubility kinetic at 4 h: 66 µg/mL (≈ 178 µM)
  solubility kinetic at 24 h: 96 µg/mL (≈ 258 µM)

Source: US11124517B2 (CRYSTAL PHARMACEUTICAL (SUZHOU) CO., LTD., priority 2017, dated 2021)
